Results taken from PubChem BioAssay (NCI).
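Five concentrations, 48 hours, 96-well plates. The concentration for 50% growth inhibition is given as GI50. TGI marks complete inhibition of growth.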

How the values were obtained:
Assay in all cases: growth of human tumour cells (NCI), 48 h
SF-295 CNS = system: SF-295 CNS
SN12C renal = system: SN12C renal
SF-539 CNS = system: SF-539 CNS
SK-MEL-5 melanoma = system: SK-MEL-5 melanoma
OVCAR-5 ovarian = system: OVCAR-5 ovarian
TK-10 renal = system: TK-10 renal
T-47D breast = system: T-47D breast
HT29 colon = system: HT29 colon
HCC-2998 colon = system: HCC-2998 colon
UACC-62 melanoma = system: UACC-62 melanoma

Row | Structure (SMILES) | GI50 (SF-295 CNS) | TGI (SF-295 CNS) | GI50 (SN12C renal) | TGI (SN12C renal) | GI50 (SF-539 CNS) | TGI (SF-539 CNS) | GI50 (SK-MEL-5 melanoma) | TGI (SK-MEL-5 melanoma) | GI50 (OVCAR-5 ovarian) | TGI (OVCAR-5 ovarian) | GI50 (TK-10 renal) | TGI (TK-10 renal) | GI50 (T-47D breast) | TGI (T-47D breast) | GI50 (HT29 colon) | TGI (HT29 colon) | GI50 (HCC-2998 colon) | TGI (HCC-2998 colon) | GI50 (UACC-62 melanoma) | TGI (UACC-62 melanoma)
1 | COc1ccc2c(c1)c(-c1nc(-c3c[nH]c4ncccc34)cs1)cn2CCCN1CCOCC1 | 1910 nM | 4170 nM | 3160 nM | 15600 nM | 1740 nM | 3670 nM | 1830 nM | 3350 nM | 2600 nM | 7910 nM | 3480 nM | 13600 nM | 2070 nM | 7830 nM | 2220 nM | 6400 nM | 2040 nM | 4340 nM | 1970 nM | 4320 nM
2 | CCNc1nc(O)c(/C=C2\C=Nc3ncccc32)s1 | 3450 nM | > 100000 nM | 3580 nM | 37500 nM | 1510 nM | 3700 nM | 3000 nM | 9470 nM | 2370 nM | > 100000 nM | 2780 nM | 95000 nM | 2020 nM | 7620 nM | 4440 nM | > 100000 nM | 4920 nM | 36700 nM | 3010 nM | 9110 nM
3 | CCN(C)c1nc(N(C)CC)c2nc(N(C)CC)nc(N(C)CC)c2n1 | – | > 100000 nM | – | > 100000 nM | – | > 100000 nM | – | > 100000 nM | – | > 100000 nM | – | > 100000 nM | – | > 100000 nM | – | > 100000 nM | – | > 100000 nM | – | > 100000 nM
4 | OC1(c2ccc(Cl)c(C(F)(F)F)c2)CCN(CCCC(c2ccc(F)cc2)c2ccc(F)cc2)CC1 | 833 nM | 1630 nM | 831 nM | 1540 nM | 943 nM | 1690 nM | 797 nM | 1470 nM | 868 nM | 1770 nM | 890 nM | 1690 nM | 941 nM | 1840 nM | 739 nM | 1470 nM | 762 nM | 1430 nM | 810 nM | 1500 nM
5 | O=C(OCc1ccc2c(Br)cc(Br)c(O)c2n1)c1cc2ccccc2[nH]1 | 3320 nM | 7680 nM | 839 nM | 2180 nM | 962 nM | 2170 nM | 1610 nM | 2990 nM | 1240 nM | 2680 nM | 1180 nM | 2430 nM | 1910 nM | 5290 nM | 408 nM | 1590 nM | 1570 nM | 3100 nM | 1160 nM | 2470 nM
6 | Nc1nc2c(c3cnccc13)C(c1ccc(Cl)c(Cl)c1)Cc1cnccc1-2 (centres undefined) | 394 nM | 4760 nM | 1180 nM | 6680 nM | 486 nM | 4290 nM | 580 nM | 3830 nM | 2520 nM | 17000 nM | 1180 nM | 9480 nM | 333 nM | 18200 nM | 370 nM | 3310 nM | 1650 nM | 7370 nM | 352 nM | 2440 nM
7 | Cc1cccc(NC(=O)c2sc3nc4c(cc3c2N)C(=O)CCC4)c1 | 194 nM | > 47600 nM | 740 nM | > 63800 nM | 199 nM | 616 nM | 115 nM | > 57400 nM | – | > 57700 nM | > 100000 nM | > 100000 nM | 397 nM | > 100000 nM | 223 nM | > 20100 nM | 540 nM | > 100000 nM | 490 nM | > 89100 nM
